Assay results as given in the supplement of paper PMC10307832.

Columns and labels:
Assay in all cases: relative viability (nuclei count vs DMSO), 5 days (fraction); higher = more cells survive
CAL-12T = tested on: CAL-12T
Procedure, shortened: (§1)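 The day after seeding in 1536-well plates, lung cancer cell lines were treated by pin tool with a single drug, or with a fixed anchor-drug dose together with five library-drug doses (not always all listed) in √10 steps. After 5 days, a combined fix-and-stain solution (final 0.05% Triton X-100, 1% formaldehyde, 1 ug/ml Hoechst) was added. Nuclei counted on 4× images gave relative viability as treated counts over vehicle counts, reported as the median of duplicate plates.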

COR-L 105 = tested on: COR-L 105
Procedure, shortened: as §1

EKVX = tested on: EKVX
Procedure, shortened: as §1

EPLC-272H = tested on: EPLC-272H
Procedure, shortened: as §1

H3255 = tested on: H3255
Procedure, shortened: as §1

HCC-15 = tested on: HCC-15
Procedure, shortened: as §1

HCC-44 = tested on: HCC-44
Procedure, shortened: as §1

HCC-827 = tested on: HCC-827
Procedure, shortened: as §1

NCI-H1355 = tested on: NCI-H1355
Procedure, shortened: as §1

NCI-H1437 = tested on: NCI-H1437
Procedure, shortened: as §1

NCI-H1755 = tested on: NCI-H1755
Procedure, shortened: as §1

NCI-H1793 = tested on: NCI-H1793
Procedure, shortened: as §1

NCI-H2009 = tested on: NCI-H2009
Procedure, shortened: as §1

NCI-H322M = tested on: NCI-H322M
Procedure, shortened: as §1

NCI-H520 = tested on: NCI-H520
Procedure, shortened: as §1

NCI-H596 = tested on: NCI-H596
Procedure, shortened: as §1

NCI-H647 = tested on: NCI-H647
Procedure, shortened: as §1

PC-3 [JPC-3] = tested on: PC-3 [JPC-3]
Procedure, shortened: as §1

SK-LU-1 = tested on: SK-LU-1
Procedure, shortened: as §1

UMC-11 = tested on: UMC-11
Procedure, shortened: as §1

`Cc1cn(-c2cc(NC(=O)c3ccc(C)c(Nc4nccc(-c5cccnc5)n4)c3)cc(C(F)(F)F)c2)cn1` [Nilotinib] + CS(=O)(=O)CCNCc1ccc(-c2ccc3ncnc(Nc4ccc(OCc5cccc(F)c5)c(Cl)c4)c3c2)o1 [Lapatinib] (partner 2 µM) was tested, and the relative viability (CAL-12T; first compound 0.001 µM) was 0.729, the relative viability (CAL-12T; first compound 0.01 µM) was 0.748 and the relative viability (CAL-12T; first compound 0.03162 µM) was 0.839. The relative viability (CAL-12T; first compound 0.1 µM) was 0.74, the relative viability (COR-L 105; first compound 0.001 µM) was 0.418 and the relative viability (COR-L 105; first compound 0.01 µM) was 0.375. For the same molecule, the relative viability (COR-L 105; first compound 0.03162 µM) was 0.352, the relative viability (COR-L 105; first compound 0.1 µM) was 0.286 and the relative viability (EKVX; first compound 0.001 µM) was 0.211. For the same molecule, the relative viability (EKVX; first compound 0.003162 µM) was 0.195, the relative viability (EKVX; first compound 0.01 µM) was 0.214 and the relative viability (EKVX; first compound 0.03162 µM) was 0.187. The relative viability (EKVX; first compound 0.1 µM) was 0.204, the relative viability (EPLC-272H; first compound 0.001 µM) was 0.877 and the relative viability (EPLC-272H; first compound 0.003162 µM) was 1.23. The relative viability (EPLC-272H; first compound 0.01 µM) was 0.775, the relative viability (EPLC-272H; first compound 0.03162 µM) was 0.976 and the relative viability (EPLC-272H; first compound 0.1 µM) was 0.402. It also gave a relative viability (H3255; first compound 0.001 µM) of 0.259, a relative viability (H3255; first compound 0.003162 µM) of 0.224 and a relative viability (H3255; first compound 0.01 µM) of 0.236. The relative viability (H3255; first compound 0.03162 µM) was 0.24, the relative viability (H3255; first compound 0.1 µM) was 0.217 and the relative viability (HCC-15; first compound 0.001 µM) was 0.835. The relative viability (HCC-15; first compound 0.003162 µM) was 1.07, the relative viability (HCC-15; first compound 0.01 µM) was 1.05 and the relative viability (HCC-15; first compound 0.03162 µM) was 0.663. For the same molecule, the relative viability (HCC-15; first compound 0.1 µM) was 0.443, the relative viability (HCC-44; first compound 0.001 µM) was 0.994 and the relative viability (HCC-44; first compound 0.003162 µM) was 1.09. For the same molecule, the relative viability (HCC-44; first compound 0.01 µM) was 0.822, the relative viability (HCC-44; first compound 0.03162 µM) was 0.966 and the relative viability (HCC-44; first compound 0.1 µM) was 0.869. For the same molecule, the relative viability (HCC-827; first compound 0.001 µM) was 0.233, the relative viability (HCC-827; first compound 0.003162 µM) was 0.184 and the relative viability (HCC-827; first compound 0.01 µM) was 0.154. It also gave a relative viability (HCC-827; first compound 0.1 µM) of 0.184, a relative viability (NCI-H1355; first compound 0.001 µM) of 1.07 and a relative viability (NCI-H1355; first compound 0.003162 µM) of 1.32. It also gave a relative viability (NCI-H1355; first compound 0.01 µM) of 1.2, a relative viability (NCI-H1355; first compound 0.03162 µM) of 1.12 and a relative viability (NCI-H1355; first compound 0.1 µM) of 0.401. For the same molecule, the relative viability (NCI-H1437; first compound 0.001 µM) was 0.687, the relative viability (NCI-H1437; first compound 0.003162 µM) was 0.973 and the relative viability (NCI-H1437; first compound 0.01 µM) was 0.858. The relative viability (NCI-H1437; first compound 0.03162 µM) was 0.614, the relative viability (NCI-H1437; first compound 0.1 µM) was 0.203 and the relative viability (NCI-H1755; first compound 0.001 µM) was 1.02. The relative viability (NCI-H1755; first compound 0.003162 µM) was 1.35, the relative viability (NCI-H1755; first compound 0.01 µM) was 1.43 and the relative viability (NCI-H1755; first compound 0.03162 µM) was 0.986. It also gave a relative viability (NCI-H1755; first compound 0.1 µM) of 0.551, a relative viability (NCI-H1793; first compound 0.003162 µM) of 0.842 and a relative viability (NCI-H1793; first compound 0.01 µM) of 1.02. The relative viability (NCI-H1793; first compound 0.03162 µM) was 0.859, the relative viability (NCI-H1793; first compound 0.1 µM) was 0.21 and the relative viability (NCI-H2009; first compound 0.001 µM) was 0.788. For the same molecule, the relative viability (NCI-H2009; first compound 0.003162 µM) was 1.1, the relative viability (NCI-H2009; first compound 0.01 µM) was 1.08 and the relative viability (NCI-H2009; first compound 0.03162 µM) was 1.01. The relative viability (NCI-H2009; first compound 0.1 µM) was 0.191, the relative viability (NCI-H322M; first compound 0.001 µM) was 0.557 and the relative viability (NCI-H322M; first compound 0.003162 µM) was 0.515. For the same molecule, the relative viability (NCI-H322M; first compound 0.03162 µM) was 0.596, the relative viability (NCI-H322M; first compound 0.1 µM) was 0.649 and the relative viability (NCI-H520; first compound 0.001 µM) was 0.678. The relative viability (NCI-H520; first compound 0.01 µM) was 0.927, the relative viability (NCI-H520; first compound 0.03162 µM) was 0.707 and the relative viability (NCI-H520; first compound 0.1 µM) was 0.383. For the same molecule, the relative viability (NCI-H596; first compound 0.001 µM) was 1.01, the relative viability (NCI-H596; first compound 0.003162 µM) was 1.15 and the relative viability (NCI-H596; first compound 0.01 µM) was 1.09. It also gave a relative viability (NCI-H596; first compound 0.03162 µM) of 0.984, a relative viability (NCI-H596; first compound 0.1 µM) of 0.88 and a relative viability (NCI-H647; first compound 0.001 µM) of 0.978. It also gave a relative viability (NCI-H647; first compound 0.003162 µM) of 1.42, a relative viability (NCI-H647; first compound 0.03162 µM) of 0.672 and a relative viability (NCI-H647; first compound 0.1 µM) of 0.723. For the same molecule, the relative viability (PC-3 [JPC-3]; first compound 0.001 µM) was 0.44, the relative viability (PC-3 [JPC-3]; first compound 0.003162 µM) was 0.537 and the relative viability (PC-3 [JPC-3]; first compound 0.01 µM) was 0.467. It also gave a relative viability (PC-3 [JPC-3]; first compound 0.03162 µM) of 0.542, a relative viability (PC-3 [JPC-3]; first compound 0.1 µM) of 0.282 and a relative viability (SK-LU-1; first compound 0.001 µM) of 0.769. It also gave a relative viability (SK-LU-1; first compound 0.003162 µM) of 0.855, a relative viability (SK-LU-1; first compound 0.01 µM) of 1.08 and a relative viability (SK-LU-1; first compound 0.03162 µM) of 0.558. It also gave a relative viability (SK-LU-1; first compound 0.1 µM) of 0.6, a relative viability (UMC-11; first compound 0.001 µM) of 0.995 and a relative viability (UMC-11; first compound 0.003162 µM) of 1.2. It also gave a relative viability (UMC-11; first compound 0.01 µM) of 1.27, a relative viability (UMC-11; first compound 0.03162 µM) of 0.851 and a relative viability (UMC-11; first compound 0.1 µM) of 0.255.
